compound: T1, C[C@H]1CNCCN1c1nccc(-c2noc3c2CCC[C@@]32CCCc3sc(N)c(C#N)c32)n1 [BI-2493]; experiment: 1 - AUC of viability dose-response curve (sensitivity) (fraction); higher = more sensitive; settings: 5 days
Description: (§1)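 PRISM pooled barcoded cancer cell line viability screen (Broad Institute) with BI-2493 at 8 doses in threefold dilutions from 0.00457 to 10 µmol/L, 5-day treatment; curves fitted per cell line. IC50 is undefined (placeholder) for resistant lines. AUC is capped at 1, and sensitivity is reported as 1 − AUC.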

| Test System | 1 - AUC of viability dose-response curve |
| --- | --- |
| 2313287_STOMACH | 0.233 |
| MDAMB436_BREAST | 0.0282 |
| SNGM_ENDOMETRIUM | 0.0648 |
| SNU638_STOMACH | 0.119 |
| CAOV3_OVARY | 0.0615 |
| HEC151_ENDOMETRIUM | 0.0839 |
| BXPC3_PANCREAS | 0.0507 |
| BHT101_THYROID | 0.0404 |
| HT3_CERVIX | 0.17 |
| KMS27_HAEMATOPOIETIC_AND_LYMPHOID_TISSUE | 0.028 |
| CAL62_THYROID | 0.0045 |
| NCIH1793_LUNG | 0.16 |
| RL952_ENDOMETRIUM | 0.108 |
| NCIH2228_LUNG | 0.0876 |
| COLO679_SKIN | 0.146 |
| UPCISCC072_UPPER_AERODIGESTIVE_TRACT | 0.0294 |
| SNU1076_UPPER_AERODIGESTIVE_TRACT | 0.104 |
| PLCPRF5_LIVER | 0.132 |
| GOS3_CENTRAL_NERVOUS_SYSTEM | 0.0406 |
| LN382_CENTRAL_NERVOUS_SYSTEM | 0.0249 |
| KYSE520_OESOPHAGUS | 0.136 |
| RMUGS_OVARY | 0.122 |
| 1618K_TESTIS | 0.206 |
| NALM6_HAEMATOPOIETIC_AND_LYMPHOID_TISSUE | 0.0753 |
| EOL1_HAEMATOPOIETIC_AND_LYMPHOID_TISSUE | 0.355 |

| Test System | 1 - AUC of viability dose-response curve |
| --- | --- |
| A388_SKIN | 0.0151 |
| BFTC905_URINARY_TRACT | 0.114 |
| NCIH2087_LUNG | 0.104 |
| U937_HAEMATOPOIETIC_AND_LYMPHOID_TISSUE | 0.17 |
| RERFLCMS_LUNG | 0.037 |
| NUDHL1_HAEMATOPOIETIC_AND_LYMPHOID_TISSUE | 0.441 |
| TYKNU_OVARY | 0.0105 |
| HT55_LARGE_INTESTINE | 0.195 |
| SNUC4_LARGE_INTESTINE | 0.162 |
| CAL51_BREAST | 0.0624 |
| 8305C_THYROID | 0.00549 |
| LOUNH91_LUNG | 0.189 |
| PACADD119_PANCREAS | 0.169 |
| HUPT4_PANCREAS | 0.147 |
| YD38_UPPER_AERODIGESTIVE_TRACT | 0.088 |
| UMRC7_KIDNEY | 0.0724 |
| A427_LUNG | 0.349 |
| OAW42_OVARY | 0.104 |
| HEC265_ENDOMETRIUM | 0.109 |
| KYSE180_OESOPHAGUS | 0.0499 |
| LOXIMVI_SKIN | 0.0241 |
| H4_CENTRAL_NERVOUS_SYSTEM | 0.0861 |
| COLO783_SKIN | 0.176 |
| ABC1_LUNG | 0.0666 |
| U2OS_BONE | 0.215 |

| Test System | 1 - AUC of viability dose-response curve |
| --- | --- |
| SKNDZ_AUTONOMIC_GANGLIA | 0.012 |
| HT144_SKIN | 0.091 |
| NCIH2347_LUNG | 0.138 |
| KMH2_HAEMATOPOIETIC_AND_LYMPHOID_TISSUE | 0.00616 |
| NCIH2023_LUNG | 0.208 |
| C4I_CERVIX | 0.154 |
| SNU1_STOMACH | 0.102 |
| SKNMC_BONE | 0.193 |
| MESSA_SOFT_TISSUE | 0.17 |
| COLO320_LARGE_INTESTINE | 0.057 |
| TT1TKB_LARGE_INTESTINE | 0.312 |
| RDES_BONE | 0.0344 |
| MELHO_SKIN | 0.131 |
| LU99_LUNG | 0.0228 |
| PECAPJ49_UPPER_AERODIGESTIVE_TRACT | 0.0961 |
| KYM1_SOFT_TISSUE | 0.117 |
| HCC33_LUNG | 0.161 |
| PATU8988T_PANCREAS | 0.0812 |
| ZR751_BREAST | 0.1 |
| CCK81_LARGE_INTESTINE | 0.0958 |
| HH_HAEMATOPOIETIC_AND_LYMPHOID_TISSUE | 0.0743 |
| SKNAS_AUTONOMIC_GANGLIA | 0.086 |
| OACM51_OESOPHAGUS | 0.0865 |
| SW948_LARGE_INTESTINE | 0.167 |
| BL2_HAEMATOPOIETIC_AND_LYMPHOID_TISSUE | 0.183 |

| Test System | 1 - AUC of viability dose-response curve |
| --- | --- |
| PA1_OVARY | 0.176 |
| HDQP1_BREAST | 0.0753 |
| CCFSTTG1_CENTRAL_NERVOUS_SYSTEM | 0.00118 |
| MM127_SKIN | 0.0501 |
| OE33_OESOPHAGUS | 0.041 |
| NCIH441_LUNG | 0.168 |
| SKMEL5_SKIN | 0.0596 |
| NCIH522_LUNG | 0.0303 |
| MS751_CERVIX | 0.029 |
| RMSYM_SOFT_TISSUE | 0.119 |
| YD15_SALIVARY_GLAND | 0.0555 |
| YKG1_CENTRAL_NERVOUS_SYSTEM | 0.0786 |
| OUMS23_LARGE_INTESTINE | 0.165 |
| NCIH358_LUNG | 0.281 |
| OC316_OVARY | 0.113 |
| KMRC20_KIDNEY | 0.185 |
| KYSE410_OESOPHAGUS | 0.15 |
| DBTRG05MG_CENTRAL_NERVOUS_SYSTEM | 0.0396 |
| NCIH1703_LUNG | 0.0509 |
| CAKI1_KIDNEY | 0.0185 |
| DMS273_LUNG | 0.265 |
| SNU398_LIVER | 0.176 |

compound: T1, BI-2493; experiment: not given; settings: 5 days
Description: as §1

| Test System | IC50 of cell viability [µM] |
| --- | --- |
| 2313287_STOMACH | 1.34 |
| MDAMB436_BREAST | > 10 |
| SNGM_ENDOMETRIUM | 7.12 |
| SNU638_STOMACH | 8.32 |
| CAOV3_OVARY | > 10 |
| HEC151_ENDOMETRIUM | 5.89 |
| BXPC3_PANCREAS | > 10 |
| BHT101_THYROID | 7.97 |
| HT3_CERVIX | 5.97 |
| KMS27_HAEMATOPOIETIC_AND_LYMPHOID_TISSUE | 9 |
| CAL62_THYROID | > 10 |
| NCIH1793_LUNG | 8.29 |
| RL952_ENDOMETRIUM | 3.87 |
| NCIH2228_LUNG | 7.89 |
| COLO679_SKIN | 4.47 |
| UPCISCC072_UPPER_AERODIGESTIVE_TRACT | 8.57 |
| SNU1076_UPPER_AERODIGESTIVE_TRACT | 3.84 |
| PLCPRF5_LIVER | 5.13 |
| GOS3_CENTRAL_NERVOUS_SYSTEM | 9.35 |
| LN382_CENTRAL_NERVOUS_SYSTEM | 8.95 |
| KYSE520_OESOPHAGUS | 4.02 |
| RMUGS_OVARY | 5.26 |
| 1618K_TESTIS | 2.47 |
| NALM6_HAEMATOPOIETIC_AND_LYMPHOID_TISSUE | 6.5 |
| EOL1_HAEMATOPOIETIC_AND_LYMPHOID_TISSUE | 0.77 |

| Test System | IC50 of cell viability [µM] |
| --- | --- |
| A388_SKIN | > 10 |
| BFTC905_URINARY_TRACT | 6.41 |
| NCIH2087_LUNG | 3.99 |
| U937_HAEMATOPOIETIC_AND_LYMPHOID_TISSUE | 3.77 |
| RERFLCMS_LUNG | 8.02 |
| NUDHL1_HAEMATOPOIETIC_AND_LYMPHOID_TISSUE | 0.306 |
| TYKNU_OVARY | 9.48 |
| HT55_LARGE_INTESTINE | 4.03 |
| SNUC4_LARGE_INTESTINE | 5.72 |
| CAL51_BREAST | 9.13 |
| 8305C_THYROID | 9.71 |
| LOUNH91_LUNG | > 10 |
| PACADD119_PANCREAS | 4.59 |
| HUPT4_PANCREAS | 3.9 |
| YD38_UPPER_AERODIGESTIVE_TRACT | 6.6 |
| UMRC7_KIDNEY | 6.09 |
| A427_LUNG | 0.735 |
| OAW42_OVARY | 5.86 |
| HEC265_ENDOMETRIUM | 3.76 |
| KYSE180_OESOPHAGUS | 7.63 |
| LOXIMVI_SKIN | 8.63 |
| H4_CENTRAL_NERVOUS_SYSTEM | 5.48 |
| COLO783_SKIN | 5.22 |
| ABC1_LUNG | 7.12 |
| U2OS_BONE | > 10 |

| Test System | IC50 of cell viability [µM] |
| --- | --- |
| SKNDZ_AUTONOMIC_GANGLIA | 9.28 |
| HT144_SKIN | 5.71 |
| NCIH2347_LUNG | 4.63 |
| KMH2_HAEMATOPOIETIC_AND_LYMPHOID_TISSUE | 9.96 |
| NCIH2023_LUNG | 2.57 |
| C4I_CERVIX | 3.49 |
| SNU1_STOMACH | 5.53 |
| SKNMC_BONE | 7.83 |
| MESSA_SOFT_TISSUE | 3.73 |
| COLO320_LARGE_INTESTINE | 7.35 |
| TT1TKB_LARGE_INTESTINE | 1.08 |
| RDES_BONE | 9.6 |
| MELHO_SKIN | 7.85 |
| LU99_LUNG | 8.77 |
| PECAPJ49_UPPER_AERODIGESTIVE_TRACT | 5.93 |
| KYM1_SOFT_TISSUE | 3.79 |
| HCC33_LUNG | 9.27 |
| PATU8988T_PANCREAS | 4.5 |
| ZR751_BREAST | 4.57 |
| CCK81_LARGE_INTESTINE | 6.18 |
| HH_HAEMATOPOIETIC_AND_LYMPHOID_TISSUE | 5.02 |
| SKNAS_AUTONOMIC_GANGLIA | 4.32 |
| OACM51_OESOPHAGUS | 6.83 |
| SW948_LARGE_INTESTINE | 7.49 |
| BL2_HAEMATOPOIETIC_AND_LYMPHOID_TISSUE | 4.45 |

| Test System | IC50 of cell viability [µM] |
| --- | --- |
| PA1_OVARY | 1.45 |
| HDQP1_BREAST | 8.25 |
| CCFSTTG1_CENTRAL_NERVOUS_SYSTEM | > 10 |
| MM127_SKIN | 7.34 |
| OE33_OESOPHAGUS | 8.75 |
| NCIH441_LUNG | 4.14 |
| SKMEL5_SKIN | 7.01 |
| NCIH522_LUNG | 9.9 |
| MS751_CERVIX | 8.93 |
| RMSYM_SOFT_TISSUE | 6.04 |
| YD15_SALIVARY_GLAND | 6.99 |
| YKG1_CENTRAL_NERVOUS_SYSTEM | 9.17 |
| OUMS23_LARGE_INTESTINE | 8.65 |
| NCIH358_LUNG | 2.33 |
| OC316_OVARY | 5.73 |
| KMRC20_KIDNEY | 4.73 |
| KYSE410_OESOPHAGUS | 3.85 |
| DBTRG05MG_CENTRAL_NERVOUS_SYSTEM | 7.98 |
| NCIH1703_LUNG | > 10 |
| CAKI1_KIDNEY | 9.29 |
| DMS273_LUNG | 2.81 |
| SNU398_LIVER | 3.55 |

Source: the supplement of paper PMC11962398
